Drawing on PubChem BioAssay (NCI), this text covers GI50 and TGI for 10 molecules.

Several values for one entry are separate records, joined by “and”; a condition that tells them apart may be missing. Identical values can stand only once.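 Values below derive from 48-hour exposures of cells grown in 96-well plates, with endpoints linearly interpolated between the two concentrations bracketing the appropriate inhibition level. Here, GI50 denotes the concentration required for 50% inhibition of growth. TGI denotes the concentration required for complete inhibition of growth.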 Where only a bound is given, the exact number is not on record here.

Among the test systems are HOP-92 NSCLC; MDA-MB-231 breast; IGROV1 ovarian; RXF 393 renal; OVCAR-5 ovarian; NCI-H460 lung; NCI-H226 lung; MALME-3M melanoma.
Common to all, as to experiment: NCI tumour cell line growth inhibition, 48 h

With `CO[C@H]1CC(O[C@@H]2/C(C)=C/C[C@@H]3C[C@@H](C[C@]4(CC[C@H](C)[C@@H](C5CCCCC5)O4)O3)OC(=O)[C@@H]3C=C(C)/C(=N/O)[C@H]4OC/C(=C\C=C\[C@@H]2C)[C@]43O)O[C@@H](C)C1O` (stereo not given in full), the GI50 in the assay with HOP-92 NSCLC is 0.648 µM; in the assay on MDA-MB-231 breast, 0.768 µM; in the assay on IGROV1 ovarian, 1.07 µM; with RXF 393 renal, 0.728 µM; in the assay with OVCAR-5 ovarian it was 0.917 µM; with NCI-H460 lung, 0.793 µM. For the same molecule, the GI50 in the assay with NCI-H226 lung is 0.73 µM; with MALME-3M melanoma it was 1.17 µM. For the same molecule, the TGI with HOP-92 NSCLC is 1.57 µM; in the assay with MDA-MB-231 breast it was 1.59 µM; with IGROV1 ovarian it was 2.69 µM; with RXF 393 renal, 1.4 µM; in the assay with OVCAR-5 ovarian it was 2.02 µM; in the assay with NCI-H460 lung, 1.51 µM. Further, the TGI with NCI-H226 lung was 1.43 µM; in the assay with MALME-3M melanoma, 3.15 µM.

`Cc1cc2c(-c3nc4ccccn4c3N)c(O)c(O)cc2c(O)c1-c1c(C)cc2c(-c3nc4ccccn4c3N)c(O)c(O)cc2c1O`: the GI50 was 0.65 µM with HOP-92 NSCLC; 3.11 µM in the assay with MDA-MB-231 breast; 1.36 µM in the assay with IGROV1 ovarian; 0.682 µM with RXF 393 renal; 1.69 µM with OVCAR-5 ovarian; 0.103 µM in the assay with NCI-H460 lung. Also, the GI50 was 1.44 µM with NCI-H226 lung and 0.81 µM in the assay on MALME-3M melanoma. The TGI with HOP-92 NSCLC is 2.29 µM; in the assay on MDA-MB-231 breast, over 25 µM; in the assay on IGROV1 ovarian, over 25 µM; in the assay with RXF 393 renal, 18 µM; in the assay on OVCAR-5 ovarian it was over 25 µM; in the assay with NCI-H460 lung it was 3.11 µM. Also, the TGI in the assay on NCI-H226 lung and with MALME-3M melanoma was over 25 µM throughout.

Consider `CC(=O)N1N=C(c2ccc(Nc3nc(Nc4ccc(F)cc4)nc(Nc4ccc(F)cc4)n3)cc2)CC1c1ccc(N(C)C)cc1` (stereo not given), for which the TGI in the assay on HOP-92 NSCLC was 0.488 µM; in the assay with MDA-MB-231 breast, 29.7 µM; in the assay on IGROV1 ovarian it was 30.6 µM; with RXF 393 renal, 5.6 µM; in the assay on OVCAR-5 ovarian it was over 100 µM; with NCI-H460 lung, 17 µM. For the same molecule, the TGI with NCI-H226 lung is 14.9 µM; in the assay with MALME-3M melanoma it was 34.8 µM. Further, the GI50 with MDA-MB-231 breast was 6.54 µM; with IGROV1 ovarian it was 7.09 µM; in the assay with RXF 393 renal it was 1.56 µM; in the assay on OVCAR-5 ovarian, 29.5 µM; with NCI-H460 lung, 4.9 µM; in the assay on NCI-H226 lung, 3.29 µM. Further, the GI50 with MALME-3M melanoma is 11.4 µM.

In the case of `Cn1c2c(c3ccccc31)CCN1C(=O)CCC21` (stereo not given), the TGI in the assay with HOP-92 NSCLC, in the assay with MDA-MB-231 breast, with IGROV1 ovarian, in the assay on RXF 393 renal, with OVCAR-5 ovarian and in the assay with NCI-H460 lung was over 10 µM throughout. Besides, the TGI in the assay with NCI-H226 lung and in the assay with MALME-3M melanoma was over 10 µM each time.

For `C#CCN(c1ccc(C(=O)N[C@@H](CCC(=O)N[C@H](CCC(=O)O)C(=O)O)C(=O)O)cc1)C1CCc2cc3nc(CO)[nH]c(=O)c3cc21` (stereo not given in full), the GI50 in the assay on HOP-92 NSCLC is over 53.4 µM; with MDA-MB-231 breast it was over 100 µM; with IGROV1 ovarian, over 100 µM; in the assay on RXF 393 renal, 63.8 µM; in the assay with OVCAR-5 ovarian it was over 100 µM; in the assay with NCI-H460 lung, 5.11 µM. Moreover, the GI50 in the assay on NCI-H226 lung and with MALME-3M melanoma was over 100 µM throughout. Further, the TGI in the assay with HOP-92 NSCLC, with MDA-MB-231 breast, with IGROV1 ovarian, in the assay on RXF 393 renal, in the assay with OVCAR-5 ovarian and in the assay on NCI-H460 lung was over 100 µM throughout. In addition, the TGI with NCI-H226 lung and in the assay on MALME-3M melanoma was over 100 µM throughout.

`N#Cc1cnc(Nc2cc(NC[C@H]3CNCCO3)c(C(F)(F)F)cn2)cn1`: the GI50 with HOP-92 NSCLC was 8.95 µM; with MDA-MB-231 breast it was 13.1 µM; in the assay on IGROV1 ovarian, 5.57 µM; in the assay with RXF 393 renal, 0.858 µM; in the assay on OVCAR-5 ovarian, 9.37 µM; with NCI-H460 lung, 13.4 µM. For the same molecule, the GI50 with NCI-H226 lung was 22.4 µM; with MALME-3M melanoma it was 10.4 µM. The TGI was 26.6 µM in the assay with HOP-92 NSCLC; 47 µM with MDA-MB-231 breast; 70.6 µM in the assay with IGROV1 ovarian; 18.2 µM with RXF 393 renal; 67.1 µM in the assay on OVCAR-5 ovarian; 38.3 µM in the assay on NCI-H460 lung. For the same molecule, the figures for the TGI with NCI-H226 lung and in the assay on MALME-3M melanoma were 85.3 µM and 27.8 µM, respectively.

Take `CCN(Cc1cccc(Cl)c1)c1ccc(CO)c(Cl)c1`: the GI50 with HOP-92 NSCLC was 1.29 µM; with MDA-MB-231 breast, 12.9 µM; with IGROV1 ovarian it was 0.111 µM; in the assay with RXF 393 renal it was 4.67 µM; with OVCAR-5 ovarian, 0.222 µM; in the assay with NCI-H460 lung, 0.35 µM. Moreover, the values for the GI50 with NCI-H226 lung and with MALME-3M melanoma were 0.0905 µM and 15.8 µM, respectively. Also, the TGI in the assay with HOP-92 NSCLC was 10.7 µM; in the assay with MDA-MB-231 breast it was 30.2 µM; in the assay with IGROV1 ovarian it was 1.62 µM; in the assay on RXF 393 renal, 19.8 µM; with OVCAR-5 ovarian, 1.25 µM; in the assay on NCI-H460 lung it was 12.3 µM. Moreover, the TGI in the assay on NCI-H226 lung stood at 0.236 µM; in the assay on MALME-3M melanoma, 32.8 µM.

For `O=C(c1ccc(Cl)cc1)C(O)c1ccc(Cl)cc1` (stereo not given), the TGI in the assay on HOP-92 NSCLC, in the assay on MDA-MB-231 breast, in the assay on IGROV1 ovarian, in the assay on RXF 393 renal, in the assay with OVCAR-5 ovarian and with NCI-H460 lung was over 100 µM throughout. Further, the TGI in the assay with NCI-H226 lung and in the assay on MALME-3M melanoma was over 100 µM throughout.

In the case of `CC(=O)c1cc(C(=O)c2ccc3c(c2)Sc2ccccc2N3)n2ccccc12`, the TGI with HOP-92 NSCLC is 14.5 µM; in the assay with IGROV1 ovarian it was over 33.2 µM; in the assay with RXF 393 renal, 20.5 µM; in the assay with OVCAR-5 ovarian it was over 33.2 µM; in the assay on NCI-H226 lung, over 33.2 µM. Besides, the GI50 with MDA-MB-231 breast was 0.00651 µM and 0.0203 µM; with IGROV1 ovarian it was 0.00897 µM and 0.0258 µM; in the assay with RXF 393 renal, 0.00332 µM; in the assay with OVCAR-5 ovarian, 0.0376 µM and 0.199 µM; with NCI-H460 lung, 0.00339 µM and 0.00332 µM; in the assay with MALME-3M melanoma it was 0.00487 µM.

As to `O=C1C=CC(=O)c2c(O)c3c(c(O)c21)C[C@H](O)[C@H](O)[C@@H]3O`, the TGI with HOP-92 NSCLC was 2.87 µM; in the assay on MDA-MB-231 breast, 6.08 µM; in the assay on IGROV1 ovarian, 6.92 µM; in the assay on RXF 393 renal it was 3.43 µM; with OVCAR-5 ovarian, 17.2 µM; in the assay on NCI-H460 lung, 16.8 µM. For the same molecule, the TGI worked out at 36.7 µM in the assay on NCI-H226 lung and 2.6 µM in the assay on MALME-3M melanoma.
